According to BindingDB's records for doi:10.1016/0006-291x(92)90654-4 (Veterans Affairs Medical Center, 1992):

Target: 5-hydroxytryptamine receptor 1B (Homo sapiens, UniProt P28222)
Sequence (P28222 whole entry): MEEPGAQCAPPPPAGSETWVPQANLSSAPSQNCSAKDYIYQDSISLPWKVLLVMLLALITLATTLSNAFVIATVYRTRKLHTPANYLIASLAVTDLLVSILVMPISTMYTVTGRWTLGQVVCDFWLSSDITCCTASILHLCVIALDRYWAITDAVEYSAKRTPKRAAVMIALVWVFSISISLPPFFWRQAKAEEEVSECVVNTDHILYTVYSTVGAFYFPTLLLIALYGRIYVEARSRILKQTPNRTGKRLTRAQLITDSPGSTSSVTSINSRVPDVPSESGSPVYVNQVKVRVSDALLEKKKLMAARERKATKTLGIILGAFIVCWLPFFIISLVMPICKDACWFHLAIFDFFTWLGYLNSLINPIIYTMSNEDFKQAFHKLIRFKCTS

SMILES | Ki
CSc1ccc2c(c1)C(N1CCN(C)CC1)Cc1ccccc1S2 (stereo unspecified) [methanesulfonic acid;1-methyl-4-(3-methylsulfanyl-5,6-dihydrobenzo[b][1]benzothiepin-5-yl)piperazine] | 0.2 nM
FC(F)(F)c1cccc(N2CCNCC2)c1 [TFMPP] | 28 nM
CN1CCN(c2nc3cc(C(F)(F)F)ccc3n3cccc23)CC1 [CAS_109028-10-6] | 0.04 nM
Cc1cc(C(C)(C)C)c(O)c(C)c1CC1=NCCN1 [SMR000059324] | 0.26 nM
CN1C[C@@H](NS(=O)(=O)N(C)C)C[C@@H]2c3cccc4c3c(cn4C)C[C@H]21 [MESULERGINE] | 640 nM
CC(C)(C)NCC(O)COc1cccc2[nH]c(C#N)cc12 (stereo unspecified) [NSC_155346] | 22 nM
COc1ccc2[nH]cc(C3=CCNCC3)c2c1 [5-Methoxy-3-(1,2,3,6-tetrahydro-pyridin-4-yl)-1H-indole(RU-24969)] | 12.4 nM
CN1CC(C(=O)N[C@]2(C)O[C@@]3(O)C4CCCN4C(=O)[C@H](Cc4ccccc4)N3C2=O)CC2c3cccc4[nH]cc(c34)CC21 (stereo partly drawn) [7-Methyl-4,6,6a,7,8,9,10,10a-octahydro-indolo[4,3-fg]quinoline-9-carboxylic acid ((2R,5S,10bS)-5-benzyl-10b-hydroxy-2-methyl-3,6-dioxo-octahydro-oxazolo[3,2-a]pyrrolo[2,1-c]pyrazin-2-yl)-amide] | 0.006 nM
Clc1cccc(N2CCNCC2)c1 [mCPP] | 90 nM
CN1C2CCC1CC(OC(=O)c1c[nH]c3ccccc13)C2 (stereo unspecified) | > 10000 nM
O=C(CCCN1CCC2(CC1)C(=O)NCN2c1ccccc1)c1ccc(F)cc1 [8-[4-(4-fluorophenyl)-4-oxidanylidene-butyl]-1-phenyl-1,3,8-triazaspiro[4.5]decan-4-one] | > 10000 nM
